Values of other authors as cited in patent US10441534B2, “Method for treating gynecological diseases” (PregLem SA, priority 2012, dated 2019).

Key:
[1] = once daily UPA 5 mg tablets, plasma
uterine fibroids = settings: three months treatment period

CC(=O)O[C@]1(C(C)=O)CC[C@H]2[C@@H]3CCC4=CC(=O)CCC4=C3[C@@H](c3ccc(N(C)C)cc3)C[C@@]21C [ulipristal acetate, 17α-acetoxy-11β-(4-(N,N-dimethylamino)-phenyl)-19-norpregna-4,9-diene-3,20-dione]
UPA Cmax [1]: about 25 ng/mL | UPA steady state concentrations [1]: about 3 ng/mL | efficacy in patient with uterine fibroids (uterine fibroids): efficient on the control of bleeding, reduction of fibroids volume and improvement of the patient quality of life
